Source: US7897614B2, “Preventive agent/remedial agent for constipation predominant IBS” (Mitsubishi Tanabe Pharma Corporation, priority 2001, dated 2011)
Entries after “also recorded” stand apart in the source; their conditions may differ.

Assays:
[1] = tested on: patients suffering from constipation predominant IBS; assay: Double blind clinical test in patients with constipation predominant IBS (Rome II criteria); type: in vivo, human
Text: Clinical effects of the medicament of the present invention on patients suffering from constipation predominant IBS were studied (in accordance with Rome II diagnosis criteria).
The test conducted here was a double blind test by two groups. […] Administration period consisted of 2-week screening and 4 week treatment. […] In addition, an ameliorating ratio of each symptom, that is, stool state, difficulty in defecation, feeling of residual stool after defecation, abdominal bloating, abdominal discomfort and abdominal pain is shown in FIG. 1

[2] = tested on: IBS patients; details: score 2 = marginal improvement, 3 = small improvement; Br J Pharm Pract 1987; cited from earlier work
[3] = 0.2 mg twice a day, 4 week treatment, 9 patients in the group

Molecule | Ameliorating ratio of each symptom (stool state, difficulty in defecation, residual stool feeling, abdominal bloating, discomfort, pain), FIG. 1 ([1]; 0.2 mg group compared with placebo group) | Total impression of the patients: Aggravated (number of patients) [1, 3] | Total impression of the patients: Highly effective (number of patients) [1, 3] | Total impression of the patients: Moderately effective (number of patients) [1, 3] | Total impression of the patients: Not effective (number of patients) [1, 3] | Total impression of the patients: Slightly effective (number of patients) [1, 3] | Effectiveness relative to the placebo group ([1]; 0.2 mg twice a day, 4 weeks) | Ratio of effectiveness (total percentage of highly effective and moderately effective cases) ([1]; 0.2 mg twice a day, 4 weeks, placebo group 30%) | Mean subjective score [2]
O=C(N[C@H]1CN2CCC1CC2)c1cnc2ccsc2c1O [the medicament of the present invention, (R)-N-(1-azabicyclo[2.2.2]oct-3-yl)-7-hydroxythieno[3,2-b]-pyridine-6-carboxamide] | exhibited an ameliorating ratio exceeding the placebo group in any symptoms | 0 | 0 | 5 | 2 | 2 | about twice; also recorded: about two fold | 56% | 
sennoside |  |  |  |  |  |  |  |  | 2.7
